Assay results published in patent US20230133958A1, “COMPOUNDS USEFUL IN MODULATING EGFR AND PI3K” (Mekanistic Therapeutics LLC, priority 2021, published 2023).
pIC50: −log10 of the molar value.

Columns and labels:
HOP-62 = assay: NCI COMPARE panel (SRB growth inhibition), HOP-62; format: cell-based; details: Homo sapiens; Non-Small Cell Lung Cancer, HOP-62, 48 h
Protocol: (§1) The human tumor cell lines of the cancer screening panel are grown in RPMI 1640 medium containing 5% fetal bovine serum and 2 mM L-glutamine. For a typical screening experiment, cells are inoculated into 96 well microtiter plates in 100 µL at plating densities ranging from 5,000 to 40,000 cells/well depending on the doubling time of individual cell lines. After cell inoculation, the microtiter plates are incubated at 37° C., 5% CO2, 95% air and 100% relative humidity for 24 h prior to addition of experimental drugs.
(§2) After 24 h, two plates of each cell line are fixed in situ with TCA, to represent a measurement of the cell population for each cell line at the time of drug addition (Tz). Experimental drugs are solubilized in dimethyl sulfoxide at 400-fold the desired final maximum test concentration and stored frozen prior to use. […]
(§3) Following drug addition, the plates are incubated for an additional 48 h at 37° C., 5 % CO2, 95% air, and 100% relative humidity. […] Bound stain is subsequently solubilized with 10 mM trizma base, and the absorbance is read on an automated plate reader at a wavelength of 515 nm. […] Using the seven absorbance measurements [time zero, (Tz), control growth, (C), and test growth in the presence of drug at the five concentration levels (Ti)], the percentage growth is calculated at each of the drug concentrations levels. Percentage growth inhibition is calculated as: […]

KM12 = assay: NCI COMPARE panel (SRB growth inhibition), KM12; format: cell-based; details: Homo sapiens; Colon Cancer, KM12, 48 h
Protocol: as §1, §2, §3

DNA-PK = DNA-PK (Homo sapiens, UniProt P78527); assay: Z'-LYTE / Adapta biochemical kinase assay, DNA-PK; details: for inhibition at 0.1 µM: concentration of 100 nM/liter, read-out: Percent Inhibition of target enzymes, DNA-PK
From the text: The Z′-LYTE® biochemical assay employs a fluorescence-based, coupled-enzyme format and is based on the differential sensitivity of phosphorylated and non-phosphorylated peptides to proteolytic cleavage. The peptide substrate is labeled with two fluorophores—one at each end—that make up a FRET pair. In the primary reaction, the kinase transfers the gamma-phosphate of ATP to a single tyrosine, serine or threonine residue in a synthetic FRET-peptide. In the secondary reaction, a site-specific protease recognizes and cleaves non-phosphorylated FRET-peptides. Phosphorylation of FRET-peptides suppresses cleavage by the Development Reagent. Cleavage disrupts FRET between the donor (i.e., coumarin) and acceptor (i.e., fluorescein) fluorophores on the FRET-peptide, whereas uncleaved, phosphorylated FRET-peptides maintain FRET. A ratiometric method, which calculates the ratio (the Emission Ratio) of donor emission to acceptor emission after excitation of the donor fluorophore at 400 nm, is used to quantitate reaction progress.
A significant benefit of this ratiometric method for quantitating reaction progress is the elimination of well-to-well variations in FRET-peptide concentration and signal intensities. As a result, the assay yields very high Z′-factor values (>0.7) at a low percent phosphorylation.
Both cleaved and uncleaved FRET-peptides contribute to the fluorescence signals and therefore to the Emission Ratio. The extent of phosphorylation of the FRET-peptide can be calculated from the Emission Ratio. The Emission Ratio will remain low if the FRET-peptide is phosphorylated (i.e., no kinase inhibition) and will be high if the FRET-peptide is non-phosphorylated (i.e., kinase inhibition).
Enzyme: The ADAPTA universal kinase assay is a homogenous, fluorescent based immunoassay for the detection of ADP. In contrast to ATP depletion assays, the ADAPTA assay is extremely sensitive to ADP formation such that a majority of the signal change occurs in the first 10-20% conversion of ATP to ADP. This makes the ADAPTA universal kinase assay ideally suited for use with low activity kinases.
The principle of the ADAPTA universal kinase assay is outlined below. The assay itself can be divided into two phases: a kinase reaction phase, and an ADP detection phase. In the kinase reaction phase, all components required for the kinase reaction are added to the well, and the reaction is allowed to incubate for 60 minutes. After the reaction, a detection solution consisting of a europium labeled anti-ADP antibody, an Alexa Fluor® 647 labeled ADP tracer, and EDTA (to stop the kinase reaction) is added to the assay well. ADP formed by the kinase reaction (in the absence of an inhibitor) will displace the Alexa Fluor® 647 labeled ADP tracer from the antibody, resulting in a decrease in the TR-FRET signal. In the presence of an inhibitor, the amount of ADP formed by the kinase reaction is reduced, and the resulting intact antibody-tracer interaction results in a high TR-FRET signal.
Test Compounds: The Test Compounds are screened in 1% DMSO (final) in the well. For 10 point titrations, 3-fold serial dilutions are conducted from the starting concentration of the customer’s choosing.
Peptide/Kinase Mixtures: All Peptide/Kinase Mixtures are diluted to a 2X working concentration in the appropriate Kinase Buffer.
ATP Solution: All ATP Solutions are diluted to a 4X working concentration in Kinase Buffer (50 mM HEPES pH 7.5, 0.01% BRIJ-35, 10 mM MgCl2,1 mM EGTA). ATP Km apparent is previously determined using a Z′-LYTE® assay.
Development Reagent Solution: The Development Reagent is diluted in Development Buffer.
Assay Protocol: Bar-coded Corning, low volume NBS, black 384-wellplate (Corning Cat. #4514) 1. 2.5 µL - 4X Test Compound or 100 nL 100X plus 2.4 µL kinase buffer. 2. 5 µL - 2X Peptide/Kinase Mixture. 3. 2.5 µL - 4X ATP Solution. 4. 30-second plate shake. 5. 60-minute Kinase Reaction incubation at room temperature. 6. 5 µL - Development Reagent Solution. 7. […]

MDA-MB-468 = assay: NCI COMPARE panel (SRB growth inhibition), MDA-MB-468; format: cell-based; details: Homo sapiens; Breast Cancer, MDA-MB-468, 48 h
Protocol: as §1, §2, §3

CS(=O)(=O)Nc1cc(-c2ccc3ncnc(Nc4cccc(Cl)c4F)c3c2)cnc1Cl [Compound 6, N-[2-chloro-5-[4-(3-chloro-2-fluoro-anilino)quinazolin-6-yl]-3-pyridyl] methanesulfonamide]
GI50 (HOP-62): 75 to 125 nM | GI50 (KM12): > 250 nM | pIC50 (DNA-PK; DNA-PK): ≥ 8.70 | inhibition at 0.1 µM (DNA-PK): > 90% | GI50 (MDA-MB-468): 125 to 250 nM

CS(=O)(=O)Nc1cc(-c2ccc3ncc(C#N)c(Nc4cccc(Cl)c4F)c3c2)cnc1Cl [Compound 10, N-[2-chloro-5-[4-(3-chloro-2-fluoro-anilino)-3-cyano-6-quinolyl]-3-pyridyl]methanesulfonamide]
GI50 (HOP-62): 125 to 250 nM | GI50 (KM12): > 250 nM | inhibition at 0.1 µM (DNA-PK): > 90% | GI50 (MDA-MB-468): ≤ 75 nM
